Data as given in the supplement of paper PMC5770543.
± gives the standard deviation.

Assays:
[1] = test system: Plasmodium falciparum 3D7; assay: EC50 growth inhibition (60 h, SYBR Green); settings: stage: ring-stage start
[2] = test system: Plasmodium falciparum 3D7; assay: % inhibition of schizont-to-ring transition vs DMSO; higher = more inhibition
Method in brief: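 Schizont-to-ring transition inhibition is the formation of new rings relative to vehicle controls. Tightly synchronised P. falciparum schizonts at about 40–42 hours post-invasion (1% parasitemia, 2.5% hematocrit, AlbuMAX-supplemented RPMI) were treated with compound at 1, 3 or 10 µM, alongside vehicle and positive controls. After glutaraldehyde fixation, Triton permeabilisation and Hoechst 33342 staining, at least 100,000 events were counted by flow cytometry, and values are the mean of three experiments.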

[3] = test system: Toxoplasma gondii RH tachyzoites; assay: % growth inhibition vs DMSO (48 h luciferase); higher = more inhibition; settings: 10 µM;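 also: tested in triplicate wells of 96-well plates on confluent HFF monolayers, with 1% DMSO wells as negative control in four replicates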

SMILES	EC50 growth inhibition [1] [nM]	% inhibition of schizont-to-ring transition ([2]; 1 µM) [%]	% inhibition of schizont-to-ring transition ([2]; 3 µM) [%]	% inhibition of schizont-to-ring transition ([2]; 10 µM) [%]	% growth inhibition [3] [%]
CCCCOc1ccc(C(=O)Nc2cc(C)on2)cc1	5760	4.53	20.6	35.9	< 0
COc1ccc(C(=O)NC(c2ccc(Cl)cc2Cl)c2cc(Cl)c3cccnc3c2O)cc1 (stereo not drawn)	–	19.2	19.5	25.5	32.1 ± 5.2
COc1ccc(CCN2CCC(CN(C)Cc3cnn(-c4ccccc4)c3)CC2)cc1	806	15.4	48.1	63.7	63.1 ± 4.5
COCCn1c(C)nc2ccccc2c1=O	1520	6.75	13.7	31.5	57.4 ± 3.5
Cc1ccccc1OCCSc1nc2ccc(NC(=O)c3ccccc3)cc2s1	–	32	33	43.1	29.6 ± 11
Cc1ccc(C)c(Cn2c(N3CCC(C(=O)NCc4cccs4)CC3)nc3ccccc32)c1	6140	18.6	69.7	68.4	79.1 ± 1.9
COC(=O)c1ccc(C2C3=C(O)CC(c4ccc(F)cc4)CC3=Nc3ccccc3N2C(=O)c2ccccc2)cc1 (stereo not drawn)	6360	35.1	51.7	56	61.3 ± 10
O=C(Nc1cccc(-c2nc3ccccc3[nH]2)c1)c1cccc(NC(=O)c2ccco2)c1	6230	28.5	37.6	52	48.6 ± 19
CCOC(=O)c1cnc2c(C)cc(C)cc2c1Nc1ccc(OC)c(OC)c1	6690	14.7	32.9	45.1	54.2 ± 2.2
CCCn1c(=N)c(C(=O)NC2CCCCC2)cc2c(=O)n3cccc(C)c3nc21	3810	1.41	20.4	53.1	71.06 ± 0.62
CCN(CC)CCNc1ncnc2c1[nH]c1ccc(Cl)cc12	230	16.1	52	66.5	23.3 ± 2.6
Oc1ccccc1CNCC12CC3CC(CC(C3)C1)C2	96.1	64	64.7	67.1	52.8 ± 12
O=C(Nc1ccc(C23CC4CC(CC(c5ccccc5)(C4)C2)C3)cc1)c1cccs1	7300	17.5	21.8	42.3	76.8 ± 7.4
O=C(c1ccccc1F)N(Cc1ccc(Cl)cc1)c1ccccn1	5700	2.8	7.52	13.9	82.2 ± 3.3
Fc1ccc2[nH]c3c(NCCCN4CCOCC4)ncnc3c2c1	466	3.9	32.7	53.9	34.5 ± 17
CCC(c1ccccc1)c1nn2c(-c3cccs3)nnc2s1 (stereo not drawn)	147	48.6	60	65.8	67.1 ± 4.9
CC(C)(C)CC(C)(C)NCC(O)COc1ccc2c(c1)CCC2 (stereo not drawn)	4380	17.3	26.1	47.6	61.6 ± 1.5
COC(=O)c1ccc(Cl)c2c1C1C=CCC1C(c1cccc3ccccc13)N2 (stereo not drawn)	6220	8.04	15	46.6	55.6 ± 32
CCCCCC(=O)N1c2ccccc2N=C2CC(c3ccc(OC)c(OC)c3)CC(O)=C2C1c1ccc(C(F)(F)F)cc1 (stereo not drawn)	205	47.1	59.5	73.2	60.4 ± 3
CCOc1ccc(CCNC(=O)c2cccs2)cc1OCC	691	10.1	47	68.3	72 ± 8.3

SMILES	EC50 growth inhibition [1] [nM]	% inhibition of schizont-to-ring transition ([2]; 1 µM) [%]	% inhibition of schizont-to-ring transition ([2]; 3 µM) [%]	% inhibition of schizont-to-ring transition ([2]; 10 µM) [%]	% growth inhibition [3] [%]
CCN(CC)CCNc1ccnc2cc(Cl)ccc12	21.1	73.3	75.3	77.3	45.2 ± 3.8
CC(C)(C)c1ccc(C(=O)Nc2c3c(nn2-c2cccc(Cl)c2)CSC3)cc1	–	15.4	19.9	32.6	46.7 ± 4.1
COc1ccc(/C=C2/SC(=Nc3ccccc3)NC2=O)cc1	9090	10.4	23	53	22.4 ± 12
CCOC(=O)c1cnc2ccc(OC)cc2c1Nc1ccc(N2CCN(C)CC2)cc1	2980	46.5	63.7	78.1	24.9 ± 43
Cc1ccc(-c2cc3c(nn2)-c2ccccc2C3=O)cc1	214	33.1	51.8	59.3	< 0
O=C(NC1CCN(Cc2ccccc2)CC1)c1cc(-c2ccncc2)nc2ccc(Cl)cc12	1920	22.1	60.9	63.4	54.7 ± 2.7
CCOc1cc(Br)c(C(C)NC(=O)c2cccc(OC)c2)cc1OCC (stereo not drawn)	427	29.1	67.8	78	34.7 ± 18
COc1ccc2nc(C)cc(Nc3ccccc3O)c2c1	438	20.4	41.3	66.3	22.7 ± 2.9
CCC(=O)Nc1nnc(Cc2ccc(OC)c(OC)c2)s1	–	4.3	5.07	13.6	56.6 ± 7.6
CC(C)(C)c1ccc(C2CC3=Nc4ccccc4N(C(=O)c4ccccc4Cl)C(c4ccc(F)cc4)C3=C(O)C2)cc1 (stereo not drawn)	3410	< 0	5.12	41.6	68.4 ± 10
COc1cccc(C(=O)Nc2ccc(-c3nc4ccccc4[nH]3)cc2)c1	1620	3.81	12.6	34.9	53.9 ± 1.5
O=c1cc(NC2CCN(CCCc3ccccc3)CC2)c2cc(Cl)ccc2o1	396	61.1	66.7	68.9	22 ± 19
O=C(Nc1nc(-c2ccccn2)cs1)c1ccccc1Br	2160	11	13.5	34.1	98.44 ± 0.08
CCN(CC)CCCNc1ccnc2cc3ccccc3cc12	312	19.5	41.2	42.7	29.2 ± 27
CCOc1c(Cl)cc(CNCC(O)c2ccccc2)cc1OC (stereo not drawn)	956	11.2	15.1	50.5	21.7 ± 8.2
CCCc1c(CC)c(=N)c2ccccc2n1C	6030	7.3	8.61	31	38.7 ± 9.2
CCCCc1ccc(NS(=O)(=O)c2cc3c4c(c2)CCN4C(=O)CC3)cc1	–	12	12.8	34.4	36.5 ± 32
CN1CCN(c2c3c(c(C#N)c4nc5ccccc5n24)CCC3)CC1	–	< 0	5.66	21.3	39.4 ± 4.5
COc1ccc2nc(N)nc(C)c2c1	–	2.26	6.22	17.5	41.7 ± 16
